# Laboratory results reported in patent publication US11452723B2, “Combination dosage form of a mu opioid receptor antagonist and an opioid agent” (THERAVANCE BIOPHARMA R&D IP, LLC, priority 2015, dated 2022).
# Structures can show the parent of a compound that is named as a salt.
# Columns and labels:
# [1] = as described in U.S. Pat. No. 7,943,772; cited from earlier work
# mu opioid receptor = target: T1, mu opioid receptor (Homo sapiens, UniProt P35372); conditions: non-cancer pain patients on a stable opioid regimen; cited from earlier work
# T1 construct: host or cells: patients (endogenous peripheral/gastrointestinal receptors)
# [2] = Excipient compatibility study: chemical stability of films at 40° C./88% RH by HPLC; type: physicochemical; conditions: T = 0; no coating material (ratio N/A)
# Description: The compatibility of axelopran with four compositions of commercial coating materials was studied as a function of ratio of coating material to axelopran. Mixtures of axelopran sulfate and the materials of Table 15 were dried at 40° C. in weighing boats to form films. Chemical stability of the films stored at accelerated conditions of 40° C. and 88% relative humidity for 2 weeks were analyzed by HPLC.
# T1 sequence (P35372 whole entry): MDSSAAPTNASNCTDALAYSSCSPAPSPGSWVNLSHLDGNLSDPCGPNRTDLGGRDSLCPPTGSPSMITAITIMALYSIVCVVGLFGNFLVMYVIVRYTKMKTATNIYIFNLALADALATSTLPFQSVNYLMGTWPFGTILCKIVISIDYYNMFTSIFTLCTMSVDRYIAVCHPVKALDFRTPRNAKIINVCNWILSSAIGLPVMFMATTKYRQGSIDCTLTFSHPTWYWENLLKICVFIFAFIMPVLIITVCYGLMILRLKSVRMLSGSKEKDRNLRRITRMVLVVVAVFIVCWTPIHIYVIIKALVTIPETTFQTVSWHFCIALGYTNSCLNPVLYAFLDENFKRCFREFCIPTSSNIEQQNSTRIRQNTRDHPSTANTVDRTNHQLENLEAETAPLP
smiles,measurement,setting,value
NC(=O)c1cccc([C@H]2C[C@H]3CC[C@@H](C2)N3CCN(CC2CCCCC2)C(=O)[C@@H](O)CO)c1 [amorphous axelopran],stability of solid form (in words),[1],not sufficiently stable for use in a drug product
NC(=O)c1cccc([C@H]2C[C@H]3CC[C@@H](C2)N3CCN(CC2CCCCC2)C(=O)[C@@H](O)CO)c1 [axelopran sulfate],stability of solid form (in words),[1],forms a stable crystalline form
"NC(=O)c1cccc([C@H]2C[C@H]3CC[C@@H](C2)N3CCN(CC2CCCCC2)C(=O)[C@@H](O)CO)c1 [axelopran, 3-((1R,3r,5S)-8-(2-((cyclohexylmethyl)((2S)-2,3-dihydroxypropanoyl)amino)ethyl)-8-azabicyclo[3.2.1]octan-3-yl)benzamide]",amelioration of symptoms of opioid induced constipation (in words),mu opioid receptor,ameliorate the symptoms of OIC in non-cancer pain patients on a stable opioid regimen without compromising analgesia
same,Axelopran Assay,[2],99.70 % Area
